# Data published in PMC2965873, “Phase I and pharmacological study of the broad-spectrum tyrosine kinase inhibitor JNJ-26483327 in patients with advanced solid tumours” (British Journal of Cancer, 2010).
# Experiments:
# [1] = test system: patients with advanced solid tumours; assay: phase I safety, DLT and MTD; type: in vivo
# Method: JNJ-26483327 was supplied by Johnson & Johnson Pharmaceutical Research and Development, Beerse, Belgium as 10 or […] oral solution for doses ⩽1200 mg, or capsules of 50, 100 or 300 mg for doses ⩾1500 mg. Medication was taken in combination with food BID with 12 h intervals. A cycle was defined as 28 days of treatment.
# The study followed an accelerated-escalation design. Initial cohorts consisted of one patient with dose doublings between cohorts in the absence of grade ⩾2 toxicity according to the National Cancer Institute Common Toxicity Criteria version 3.0 during the first cycle (http://ctep.cancer.gov/protocolDevelopment/electronic_applications/docs/ctcaev3.pdf). Once grade ⩾2 considered drug-related toxicity occurred during the first cycle, two additional patients were enrolled at that dose level with subsequent cohorts in accordance with a conventional dose-escalation (3+3) model. DLT was defined as any grade 3 or 4 non-haematological toxicity, except for nausea, vomiting or diarrhoea responsive to treatment; grade 3 skin rash/acne responsive to treatment, alopecia and isolated grade 3 GGT elevations; need for loperamide for >7 days to treat or prevent grade ⩾2 diarrhoea; need for continuous administration of 5HT-3 antagonists for >7 days to treat or prevent grade ⩾2 nausea or vomiting; a relative decrease of LVEF on MUGA scan of >20% compared with baseline; any grade 4 haematological toxicity or treatment interruptions of >14 days for grade ⩾2 toxicity in cycle 1.
# If during the conventional escalation stage no DLT occurred, the dose for the next cohort was incremented with 20–100%. If DLT was observed during cycle 1 in one of three patients, an additional three patients were enrolled at that dose level. If ⩾2 out of 6 patients experienced DLT, the MTD was exceeded and three more patients were enrolled at the next lower dose level, unless already six patients had been accrued at that dose. The MTD was defined as the highest dose at which less than one-third of the patients experienced DLT.
# (§1) Prior to therapy, a complete medical history was taken and a physical examination was performed. A complete blood cell (CBC) count, WBC count and differential and serum biochemistry including lipid profile and coagulation tests were performed, as were urinalysis, a 12-lead electrocardiogram (ECG) and MUGA scanning. Weekly evaluations during the first cycle, every other week during the second cycle and monthly thereafter included history, physical examination, adverse event assessment, CBC, WBC+differential, serum chemistry, ECG and urinalysis. An ECG was performed predose and 1, 2, 4, 8 and 24 h postdose on days 1 and 28. Follow-up of LVEF by MUGA scanning was performed at the end of the first and second cycle. Tumour measurements were performed at baseline and during every other cycle. Response was assessed according to RECIST ([Therasse et al, 2000]).
# [2] = phase I plasma pharmacokinetics; type: in vivo, human
# Method: For pharmacokinetic analysis, blood samples (3 ml) were collected before dosing and 0.5, 1, 2, 3, 4, 6, 8 and 24 h after drug administration on days 1 and 28 and predose, 0.5, 1, 2, 4 and 6 h postdose on day 15 of the first cycle and day 28 of the second cycle. Furthermore, trough PK samples were taken before drug administration on days 8 and 22. Blood samples were collected and protected from light in EDTA-Vacutainer® tubes and plasma was separated by centrifugation and stored at −20°C within 2 h of collection. Plasma concentrations of JNJ-26483327 were determined by validated, selective and sensitive liquid chromatography–mass spectrometry bioanalytical method.
# Graphical analysis was performed using dose-normalised Cmax as well as AUC of days 1 and 28 for exploration of dose proportionality across doses.
# The pharmacokinetic analysis and descriptive statistics were performed using PKAA 2.00 (developed for J&JPRD). PKAA 2.00 uses WinNonLin 5.2.1. Elimination rate constants (λz) were calculated as the negative of the slope of the terminal log-linear segment of the plasma concentration–time curves. The range of data used for each subject and dose were determined by visual inspection of a semi-logarithmic plot of concentration vs time. At least three data points were used to estimate λz. All PK calculations and figures used validated software.
# advanced solid tumours = assay: anti-tumour activity (RECIST); type: in vivo, human; settings: 19 patients
# Method: as §1
# EGFR kinase = target: EGFR kinase; design: method as in Johnson & Johnson, data on file; settings: in vitro; ref Johnson & Johnson, data on file; cited from earlier work
# [3] = test system: mutationally activated EGFR kinases; design: method as in Johnson & Johnson, data on file; settings: in vitro, several mutants; ref Johnson & Johnson, data on file; cited from earlier work
# RET-receptor kinase = target: RET-receptor kinase; design: method as in Johnson & Johnson, data on file; settings: in vitro; ref Johnson & Johnson, data on file; cited from earlier work
# Her4 = test system: Her4; design: method as in Johnson & Johnson, data on file; settings: ref Johnson & Johnson, data on file; read-out: IC50 range; cited from earlier work
# Lyn = test system: Lyn; design: method as in Johnson & Johnson, data on file; settings: Src family; ref Johnson & Johnson, data on file; read-out: IC50 range; cited from earlier work
# Fyn = test system: Fyn; design: method as in Johnson & Johnson, data on file; settings: Src family; ref Johnson & Johnson, data on file; read-out: IC50 range; cited from earlier work
# Yes = test system: Yes; design: method as in Johnson & Johnson, data on file; settings: Src family; ref Johnson & Johnson, data on file; read-out: IC50 range; cited from earlier work
# c-Src = test system: c-Src; design: method as in Johnson & Johnson, data on file; settings: ref Johnson & Johnson, data on file; cited from earlier work
# Her2 = test system: Her2; design: method as in Johnson & Johnson, data on file; settings: ref Johnson & Johnson, data on file; cited from earlier work
# Flt3 = test system: Flt3; design: method as in Johnson & Johnson, data on file; settings: ref Johnson & Johnson, data on file; cited from earlier work
# [4] = design: method as in Johnson & Johnson, data on file; settings: ref Johnson & Johnson, data on file; cited from earlier work
# [5] = design: method as in Johnson & Johnson, data on file; settings: preclinical studies; ref Johnson & Johnson, data on file; cited from earlier work
# xenograft mouse models = test system: xenograft mouse models; design: method as in Johnson & Johnson, data on file; settings: preclinical studies; ref Johnson & Johnson, data on file; cited from earlier work
# healthy male volunteers = test system: healthy male volunteers; design: method as in preceding study in healthy male volunteers; settings: single doses up to and including 200 mg; ref preceding study in healthy male volunteers; cited from earlier work
# [6] = 800 mg BID, day 1, n=3, mean±s.d.
# [7] = 800 mg BID, day 28 (steady state), n=2, mean
# [8] = 1200 mg BID, day 1, n=3, mean±s.d.
# [9] = 1200 mg BID, day 28 (steady state), n=2, mean
# [10] = 1500 mg BID, day 1, n=6, mean±s.d.
# [11] = 1500 mg BID, day 28 (steady state), n=6, mean±s.d.
# [12] = 2100 mg BID, day 1, n=3, mean±s.d.
# [13] = 2100 mg BID, day 28 (steady state), n=2, mean
smiles,measurement,setting,value
COc1cc2ncnc3c2cc1OCCCCCN(C)Cc1ccc(Br)cc1N3 [JNJ-26483327],"Anaemia: patients, Total %",[1]; in vivo,15.8%
same,"Anaemia: patients, Total n",[1]; in vivo,3
same,"Anorexia: patients, Total %",[1]; in vivo,42.1%
same,"Constipation: patients, Total %",[1]; in vivo,10.5%
same,"Constipation: patients, Total n",[1]; in vivo,2
same,"Diarrhoea: patients, Total n",[1]; in vivo,12
same,"Dry skin: patients, Total %",[1]; in vivo,10.5%
same,"Dry skin: patients, Total n",[1]; in vivo,2
same,"Dyspepsia: patients, Total %",[1]; in vivo,10.5%
same,"Dyspepsia: patients, Total n",[1]; in vivo,2
same,"Dysphonia: patients, Total %",[1]; in vivo,15.8%
same,"Dysphonia: patients, Total n",[1]; in vivo,3
same,"Fatigue: patients, Total %",[1]; in vivo,47.4%
same,"Fatigue: patients, Total n",[1]; in vivo,9
same,"Nausea: patients, Total %",[1]; in vivo,68.4%
same,"Nausea: patients, Total n",[1]; in vivo,13
same,"Pain: patients, Total %",[1]; in vivo,10.5%
same,"Pain: patients, Total n",[1]; in vivo,2
same,"Rash: patients, Total %",[1]; in vivo,57.9%
same,"Rash: patients, Total n",[1]; in vivo,11
same,"Skin discolouration: patients, Total %",[1]; in vivo,5.3%
same,"Skin discolouration: patients, Total n",[1]; in vivo,1
same,"Skin exfoliation (palms): patients, Total %",[1]; in vivo,5.3%
same,"Skin exfoliation (palms): patients, Total n",[1]; in vivo,1
same,"Vomiting: patients, Total %",[1]; in vivo,52.6%
same,"Vomiting: patients, Total n",[1]; in vivo,10
same,"Weight decreased: patients, Total %",[1]; in vivo,10.5%
same,"Weight decreased: patients, Total n",[1]; in vivo,2
same,"gastrointestinal side effects, incidence",[1]; in vivo,95%
same,hypertension,[1]; in vivo,no hypertension was noted
same,patients with grade 2 anaemia,[1]; in vivo,three
same,"skin toxicity, overall incidence",[1]; in vivo,68%
same,subjects with a significant decrease in LVEF,[1]; in vivo,None
same,recommended dose for further studies (phase 2 dose),"[1]; in vivo, po",1500 mg BID
same,maximum tolerated dose (MTD),"[1]; oral, continuous, 28-day cycles",1500 mg BID
same,CL/F,[2]; [6],86.3 ± 33.5 L/h
same,Cmax,[2]; [6],2210 ± 593 ng/mL
same,Vdz/F,[2]; [6],1021 ± 401 L
same,t1/2,[2]; [6],8.4 ± 1.8 h
same,tmax,"[2]; 800 mg BID, day 1, n=3, median (min–max)",2.03 (2.00–3.02) h
same,AUC (AUCtau),[2]; [7],10 623 ng h ml^−1
same,CL/F,[2]; [7],76.4 L/h
same,Cmax,[2]; [7],2390 ng/mL
same,tmax,"[2]; 800 mg BID, day 28 (steady state), n=2, median (min–max)",1.52 (1.00–2.03) h
same,CL/F,[2]; [8],47.4 ± 35.3 L/h
same,Cmax,[2]; [8],3707 ± 1927 ng/mL
same,Vdz/F,[2]; [8],342 ± 212 L
same,t1/2,[2]; [8],5.2 ± 1.7 h
same,tmax,"[2]; 1200 mg BID, day 1, n=3, median (min–max)",3.00 (2.00–6.00) h
same,AUC (AUCtau),[2]; [9],21 230 ng h ml^−1
same,CL/F,[2]; [9],88.4 L/h
same,Cmax,[2]; [9],2750 ng/mL
same,tmax,"[2]; 1200 mg BID, day 28 (steady state), n=2, median (min–max)",1.00 (1.00–1.00) h
same,CL/F,[2]; [10],144 ± 104 L/h
same,Cmax,[2]; [10],2361 ± 1765 ng/mL
same,Vdz/F,[2]; [10],1038 ± 799 L
same,t1/2,[2]; [10],4.8 ± 0.5 h
same,tmax,"[2]; 1500 mg BID, day 1, n=6, median (min–max)",4.00 (2.00–4.03) h
same,CL/F,[2]; [11],286 ± 540 L/h
same,Cmax,[2]; [11],3375 ± 2116 ng/mL
same,tmax,"[2]; 1500 mg BID, day 28 (steady state), n=6, median (min–max)",3.99 (3.00–12.00) h
same,CL/F,[2]; [12],3055 ± 5099 L/h
same,t1/2,[2]; [12],6.7 ± 1.7 h
same,Cmax,"[2]; 2100 mg BID, day 1, n=4, mean±s.d.",2213 ± 2983 ng/mL
same,tmax,"[2]; 2100 mg BID, day 1, n=4, median (min–max)",3.54 (2.00–4.08) h
same,AUC (AUCtau),[2]; [13],8467 ng·h/mL
same,CL/F,[2]; [13],3087 L/h
same,Cmax,[2]; [13],1236 ng/mL
same,tmax,"[2]; 2100 mg BID, day 28 (steady state), n=2, median (min–max)",5.00 (4.00–6.00) h
same,dose proportionality of pharmacokinetics,[2]; Cmax and AUC at steady state,dose proportional up to 1500 mg
same,terminal half-life,[2]; all dose levels,5 to 8 h
same,peak concentration (average),"[2]; day 1, 1200 mg",~4 μg ml^–1
same,Cmax,"[2]; day 1, 1500 and 2100 mg dose groups",~2 μg ml^–1
same,time to reach Cmax,"[2]; first administration, capsule formulation (dose levels 1500 and 2100 mg)",up to 4 h
same,time to reach Cmax,"[2]; first administration, liquid formulation (dose levels 800 and 1200 mg)",2 to 3 h
same,time to reach Cmax,"[2]; steady state (days 15 and 28), capsule formulation",2 to 5 h
same,time to reach Cmax,"[2]; steady state (days 15 and 28), liquid formulation",1 to 2 h
same,patients with stable disease lasting more than two cycles,advanced solid tumours; 100–2100 mg BID,six
same,patients with stable disease,advanced solid tumours; more than two cycles,32%
same,IC50,EGFR kinase,< 10 nM
same,IC50,[3],< 10 nM
same,IC50,RET-receptor kinase,< 10 nM
same,IC50,Her4,11 to 99 nM
same,IC50,Lyn,11 to 99 nM
same,IC50,Fyn,11 to 99 nM
same,IC50,Yes,11 to 99 nM
same,IC50,c-Src,100 to 1000 nM
same,IC50,Her2,100 to 1000 nM
same,IC50,Flt3,100 to 1000 nM
same,oral bioavailability,[4],~80%
same,tissue distribution profile,[5],passage of the blood–brain barrier
same,anti-cancer activity,xenograft mouse models,anti-cancer activity was observed
same,safety and tolerability,healthy male volunteers,safe and well tolerated
